According to US20250186410A1, “DUAL INHIBITORS OF TRYPTOPHAN DIOXYGENASES (IDO1 AND TDO) AND THEIR USE IN THERAPY” (ANTIDO THERAPEUTICS INTERNATIONAL SÀRL, priority 2022, published 2025):

Tests used:
[1] = tested on: LLC (cisplatin-sensitive cell tumours); assay: Tumor growth in syngeneic mouse model, LLC allografts; type: in vivo; settings: epacadostat 200 mg/kg P.O. daily
Experimental: (§1) LLC or LLC-CR (1×10^6) cells were subcutaneously injected into the flank of C57B6/J male and female mice (5 mice per group, age 6-8 weeks, Jackson laboratory) and allowed to grow for 3 days (average tumor size=50 mm^3) before being treated with the selective IDO1 inhibitor epacadostat at 200 mg/kg daily or with AT-0174 at 170 mg/kg daily (a dual inhibitor of IDO1 and TDO enzymes). Both compounds were administered via oral gavage (P.O.) and diluted with 95% water+5% methylcellulose (0.5%) and stored at −20° C. Compound was prepared every 5 days. Methyl cellulose (95+5%) was used as control (“Veh”). Tumor growth was evaluated every 2 days by measuring tumor volume with calipers according to the following formula: tumor volume=width^2×length×0.5. At the end of the study, mice were sacrificed and the blood, tumor, and lymph nodes were collected and processed for KYN and tryptophan (TRP) measurement and immune cell assessment respectively.
In this example, LLC-CR from the Lewis lung mouse cell line (LLC; see methods) was used to determine, in vivo, the effect of IDO1 or dual IDO1/TDO inhibition on tumor growth. Mice were inoculated with either LLC or LLC-CR and treated with epacadostat (200 mg/kg P.O. 1/day) or AT-0174 (170 mg/kg P.O. 1/day).

[2] = tested on: LLC-CR (cisplatin-resistant cell tumours); assay: Tumor growth in syngeneic mouse model, LLC-CR allografts; type: in vivo; settings: for tumor weight: LLC-CR allograft mice, FIG. 2C; for tumor volume, Mean: LLC-CR tumours, AT-0174 170 mg/kg, epacadostat 200 mg/kg P.O. daily; for Tumor growth: cisplatin-resistant tumor group, FIG. 2B
Experimental: Cisplatin resistant mouse cell lines (LLC-CR) were derived from LLC (mouse Lewis lung cancer cells (epidermoid carcinoma), ATCC) through treatment with increasing doses of cisplatin intermittently. LLC-CR clones were maintained in half GI50 dosage concentration. […] The cultures were observed daily and allowed to grow until they reached an initial cell density. […] After the cells recovered from cisplatin toxicity, they were treated again with increasing dosage of cisplatin for 24 h. These cells are seeded at 500-1000 cells per dish and cultured for 5-7 days. Clones are selected and expanded as well as tested for cisplatin sensitivity. Similar processes of exposure are carried out for a third and fourth time to generate higher resistant clones. At the end, the resistance clones (LLC-CR) were maintained in media completed with 1 μg/ml (half GI50 dosage) of cisplatin. […] Both compounds were administered via oral gavage (P.O.) and diluted with 95% water+5% methylcellulose (0.5%) and stored at −20° C. Compound was prepared every 5 days. Methyl cellulose (95+5%) was used as control (“Veh”). […] At the end of the study, mice were sacrificed and the blood, tumor, and lymph nodes were collected and processed for KYN and tryptophan (TRP) measurement and immune cell assessment respectively. In this example, LLC-CR from the Lewis lung mouse cell line (LLC; see methods) was used to determine, in vivo, the effect of IDO1 or dual IDO1/TDO inhibition on tumor growth. Mice were inoculated with either LLC or LLC-CR and treated with epacadostat (200 mg/kg P.O. 1/day) or AT-0174 (170 mg/kg P.O. 1/day).

[3] = tested on: kynurenine (KYN) and tryptophan (TRP) levels in mouse serum; assay: KYN and TRP measurements, LLC-bearing mice; type: in vivo; settings: AT-0174 170 mg/kg, epacadostat 200 mg/kg P.O. daily
Experimental: as §1
Blood samples were collected via cardiac puncture from mice at the time of sacrifice and the Biochrom 30 amino acid analyzer (using ion exchange chromatography) was used to analyze free amino acids in samples. Briefly, 200 μL of serum extract and equal volume of 30% v/v deproteinization agent (sulfosalicylic acid) were mixed and vortexed for 10 s. Samples were then incubated at 55° C. for 20 min, spin down at 2500 g for 20 min at 4° C. Supernatant were collected, filtered through a 0.22 μm filter, and injected into the Biochrom 30. Values were reported compared to normal ranges in controls. Samples used in ion exchange chromatography are separated in an analytical fashion with an ion exchange column and buffers of increasing pH and ionic strength. After post-column derivatization with Ninhydrin, and colorimetric intensity recordings at 570 nm and 440 nm, the amino acids separated by chromatography were detected. Amino acid concentration was calculated by comparing the peak area of a particular amino acid to the peak area of an internal standard-AEC of known concentration, and then multiplying by its specific response factor from calibration.

[4] = tested on: cisplatin-resistant LLC tumors; assay: Survival of mice with cisplatin-resistant LLC tumors; type: in vivo, mouse; settings: for First Death / Maximal Survival / Median Survival Time: LLC-CR, C57B6/J mice, epacadostat 200 mg/kg, AT-0174 170 mg/kg P.O., anti-PD-1 10 mg/kg i.p. every 3 days
Experimental: To investigate the synergy of immune response on tumors between the dual IDO1/TDO inhibitor AT-0174 and an immune checkpoint inhibitor, the compound was tested in mice with cisplatin-resistant lung cancer tumors with and without with anti-PD1 antibody co-treatment.
LLC-CR (1×10^6) cells were subcutaneously injected into the flank of C57B6/J mice (6 mice per group, age 8 weeks) and allowed to grow for 3 days (average tumor size=50 mm^3) before being treated with IDO1 inhibitor epacadostat at 200 mg/kg daily (a supra-maximal dose) or with AT-0174 at 170 mg/kg. Both compounds were administered via oral gavage (P.O.) in 95% water+5% methylcellulose (0.5%). Anti-mouse PD-1 MAb clone RMPi-14 was used as checkpoint inhibitor and administered via intraperitoneal injection (i.p.) at a dose of 10 mg/kg every 3 days.

| Structure (SMILES) | tumor volume, Mean ([1]; day 1, AT-0174 170 mg/kg) | tumor volume, Mean ([1]; day 2, AT-0174 170 mg/kg) | tumor volume, Mean ([1]; day 3, AT-0174 170 mg/kg) | tumor volume, Mean ([1]; day 4, AT-0174 170 mg/kg) | tumor volume, Mean ([1]; day 5, AT-0174 170 mg/kg) | tumor volume, Mean ([1]; day 6, AT-0174 170 mg/kg) | tumor volume, Mean ([1]; day 7, AT-0174 170 mg/kg) | tumor volume, Mean ([1]; day 8, AT-0174 170 mg/kg) | tumor volume, Mean ([1]; day 9, AT-0174 170 mg/kg) | tumor volume, Mean ([1]; day 10, AT-0174 170 mg/kg) | tumor volume, Mean ([1]; day 11, AT-0174 170 mg/kg) | tumor volume, Mean ([1]; day 12, AT-0174 170 mg/kg) | tumor volume, Mean ([1]; day 13, AT-0174 170 mg/kg) | tumor volume, Mean ([1]; day 14, AT-0174 170 mg/kg) | tumor volume, Mean ([1]; day 15, AT-0174 170 mg/kg) | tumor weight [2] | tumor volume, Mean ([2]; day 1) | tumor volume, Mean ([2]; day 2) | tumor volume, Mean ([2]; day 3) | tumor volume, Mean ([2]; day 4) | other results |
| --- | --- | --- | --- | --- | --- | --- | --- | --- | --- | --- | --- | --- | --- | --- | --- | --- | --- | --- | --- | --- | --- |
| Nc1noc2nc(Cl)c(F)cc12 [Compound 66, 6-Chloro-5-fluoroisoxazolo[5,4-b]pyridin-3-amine] | 58.0 mm^3 | 79.0 mm^3 | 110.0 mm^3 | 125.0 mm^3 | 115.2 mm^3 | 124.0 mm^3 | 135.0 mm^3 | 140.6 mm^3 | 171.0 mm^3 | 230.0 mm^3 | 340.0 mm^3 | 430.0 mm^3 | 571.8 mm^3 | 645.0 mm^3 | 675.0 mm^3 | Significant reduction in tumor weight | 57.0 mm^3 | 93.0 mm^3 | 102.0 mm^3 | 115.0 mm^3 | tumor volume, Mean ([2]; day 5): 135.0 mm^3; tumor volume, Mean ([2]; day 6): 153.0 mm^3; tumor volume, Mean ([2]; day 7): 185.0 mm^3; tumor volume, Mean ([2]; day 8): 198.0 mm^3; tumor volume, Mean ([2]; day 9): 213.0 mm^3; tumor volume, Mean ([2]; day 10): 228.0 mm^3; tumor volume, Mean ([2]; day 11): 272.0 mm^3; tumor volume, Mean ([2]; day 12): 280.0 mm^3; tumor volume, Mean ([2]; day 13): 310.0 mm^3; tumor volume, Mean ([2]; day 14): 345.0 mm^3; tumor volume, Mean ([2]; day 15): 360.0 mm^3; Tumor growth [2]: significantly reduced; KYN/TRP Ratio [3]: 1.11 ± 0.17; Kynurenine [3]: 64.2 ± 9.3; Tyrptophan [3]: 59.2 ± 4.4; effect on survival ([4]; LLC-CR mice, given alone): increased survival to a greater extent than the selective agent; First Death [4]: 36 days; Maximal Survival [4]: 43 days; Median Survival Time [4]: 36 days |
| NS(=O)(=O)NCCNc1nonc1C(=NO)Nc1ccc(F)c(Br)c1 [Epacadostat, epacadostat, reference compound] | 47.0 mm^3 | 108.0 mm^3 | 110.0 mm^3 | 124.0 mm^3 | 137.0 mm^3 | 151.0 mm^3 | 208.0 mm^3 | 290.0 mm^3 | 325.0 mm^3 | 409.0 mm^3 | 563.0 mm^3 | 625.0 mm^3 | 725.0 mm^3 | 785.0 mm^3 | 910.0 mm^3 | reduction of the total tumor weight | 57.0 mm^3 | 89.0 mm^3 | 96.0 mm^3 | 126.0 mm^3 | tumor volume, Mean ([2]; day 5): 137.0 mm^3; tumor volume, Mean ([2]; day 6): 158.0 mm^3; tumor volume, Mean ([2]; day 7): 212.0 mm^3; tumor volume, Mean ([2]; day 8): 291.0 mm^3; tumor volume, Mean ([2]; day 9): 340.0 mm^3; tumor volume, Mean ([2]; day 10): 390.0 mm^3; tumor volume, Mean ([2]; day 11): 430.0 mm^3; tumor volume, Mean ([2]; day 12): 490.0 mm^3; tumor volume, Mean ([2]; day 13): 511.0 mm^3; tumor volume, Mean ([2]; day 15): 565.0 mm^3; Tumor growth [2]: significantly reduced; KYN/TRP Ratio [3]: 1.35 ± 0.23; Kynurenine [3]: 74.6 ± 7.7; Tyrptophan [3]: 58.6 ± 5.6; First Death [4]: 24 days; Maximal Survival [4]: 35 days; Median Survival Time [4]: 25 days |
